This test concerns Streptococcus mutans. Briefly: In vitro antibacterial properties, turbidimetric method and plate coating method. Particulars: bacterial absorbance after 4 h incubation and bacterial number counting. It counts as cell-based. As to the method:
The anti-Streptococcus mutans performance of the prepared dentin sealing materials was evaluated by a turbidimetric method and a plate coating method.

On to `[Cl-].[Cl-].[Sr+2]` [Sr, strontium chloride], for which the “ability to inhibit Streptococcus mutans” value is “ability to inhibit Streptococcus mutans”.

(Values after patent US20260256659A1, “COMPLEX FOR SEALING DENTINAL TUBULE, REAGENT FOR TREATING DENTIN HYPERSENSITIVITY, AND USE THEREOF” (ANHUI MEDICAL UNIVERSITY, priority 2023, published 2026).)
